Assay results published in ChEMBL document CHEMBL1201862, “PubChem BioAssay data set” (2004).
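96-well plates; 48 h exposure; 5 concentrations. Endpoints by linear interpolation between flanking doses. Not reached: highest tested concentration assigned. Here, GI50 denotes the concentration required for 50% inhibition of growth.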 Calls of active or inactive are those of the source. Cut-off read from the data, not from the text of the source: active = GI50 up to about 1.1 µM and inactive = higher.

Legend:
Assay in all cases: NCI tumour cell line growth inhibition, 48 h
[1] = test system: 786-0
[2] = test system: A498
[3] = test system: A549
[4] = test system: ACHN
[5] = test system: BT-549
[6] = test system: CAKI-1
[7] = test system: CCRF-CEM
[8] = test system: COLO 205
[9] = test system: DU-145
[10] = test system: EKVX
[11] = test system: HCC 2998
[12] = test system: HCT-116
[13] = test system: HCT-15
[14] = test system: HL-60
[15] = test system: HOP-92
[16] = test system: HT-29
[17] = test system: Hs-578T
[18] = test system: IGROV-1
[19] = test system: K562
[20] = test system: KM12
[21] = test system: M14
[22] = test system: MDA-MB-231
[23] = test system: MDA-MB-435
[24] = test system: MDA-N
[25] = test system: MOLT-4
[26] = test system: Malme-3M
[27] = test system: NCI-H226
[28] = test system: NCI-H23
[29] = test system: NCI-H460
[30] = test system: NCI-H522
[31] = test system: NCI/ADR-RES
[32] = test system: OVCAR-4
[33] = test system: OVCAR-5
[34] = test system: OVCAR-8
[35] = test system: PC-3
[36] = test system: RPMI-8226
[37] = test system: RXF 393
[38] = test system: SF-268
[39] = test system: SF-295
[40] = test system: SF-539
[41] = test system: SK-MEL-28
[42] = test system: SK-MEL-2
[43] = test system: SK-MEL-5
[44] = test system: SK-OV-3
[45] = test system: SN12C
[46] = test system: SNB-19
[47] = test system: SR
[48] = test system: SW-620
[49] = test system: T47D
[50] = test system: TK-10
[51] = test system: U-251
[52] = test system: UACC-257
[53] = test system: UACC-62
[54] = test system: UO-31
[55] = test system: HOP-62
[56] = test system: MCF7
[57] = test system: SNB-75
[58] = test system: LOX IMVI
[59] = test system: OVCAR-3

O=c1oc2ccccc2c2nc3ccccc3cc12
GI50 [1]: 28.2 µM (inactive)
GI50 [2]: 33 µM (inactive)
GI50 [3]: 99.8 µM (inactive)
GI50 [4]: 31 µM (inactive)
GI50 [5]: 51.2 µM (inactive)
GI50 [6]: 33.8 µM (inactive)
GI50 [7]: > 100 µM (inactive)
GI50 [8]: > 100 µM (inactive)
GI50 [9]: > 100 µM (inactive)
GI50 [10]: 79.8 µM (inactive)
GI50 [11]: 72.1 µM (inactive)
GI50 [12]: 40.2 µM (inactive)
GI50 [13]: > 100 µM
GI50 [14]: > 100 µM (inactive)
GI50 [15]: 31.3 µM (inactive)
GI50 [16]: 99.5 µM (inactive)
GI50 [17]: 25.9 µM (inactive)
GI50 [18]: 35 µM (inactive)
GI50 [19]: > 100 µM (inactive)
GI50 [20]: > 100 µM (inactive)
GI50 [21]: > 100 µM (inactive)
GI50 [22]: 23 µM (inactive)
GI50 [23]: > 100 µM (inactive)
GI50 [24]: > 100 µM (inactive)
GI50 [25]: > 100 µM (inactive)
GI50 [26]: > 100 µM (inactive)
GI50 [27]: 37.4 µM (inactive)
GI50 [28]: > 100 µM (inactive)
GI50 [29]: 37.8 µM (inactive)
GI50 [30]: 46.2 µM (inactive)
GI50 [31]: 97.7 µM (inactive)
GI50 [32]: 22.1 µM (inactive)
GI50 [33]: > 100 µM (inactive)
GI50 [34]: 46.7 µM (inactive)
GI50 [35]: 56.2 µM (inactive)
GI50 [36]: > 100 µM (inactive)
GI50 [37]: 29.2 µM (inactive)
GI50 [38]: > 10 µM (inactive)
GI50 [39]: 34.8 µM (inactive)
GI50 [40]: 11.6 µM (inactive)
GI50 [41]: > 100 µM (inactive)
GI50 [42]: > 100 µM (inactive)
GI50 [43]: > 100 µM (inactive)
GI50 [44]: 51.9 µM (inactive)
GI50 [45]: 99.1 µM (inactive)
GI50 [46]: 23.3 µM (inactive)
GI50 [47]: > 100 µM (inactive)
GI50 [48]: > 100 µM (inactive)
GI50 [49]: > 100 µM (inactive)
GI50 [50]: 58.7 µM (inactive)
GI50 [51]: 30.1 µM (inactive)
GI50 [52]: 96.6 µM (inactive)
GI50 [53]: 35.3 µM (inactive)
GI50 [54]: 34.8 µM (inactive)

COc1ccc(N2C(=O)CC(C3CC(C(C)(C)C)CCC3=O)C2=O)cc1 (stereo not given)
GI50 [1]: > 100 µM (inactive)
GI50 [3]: > 100 µM (inactive)
GI50 [4]: > 100 µM (inactive)
GI50 [5]: > 100 µM (inactive)
GI50 [6]: > 100 µM (inactive)
GI50 [7]: > 100 µM (inactive)
GI50 [8]: > 100 µM (inactive)
GI50 [9]: > 100 µM (inactive)
GI50 [10]: > 100 µM (inactive)
GI50 [11]: > 100 µM (inactive)
GI50 [12]: > 100 µM (inactive)
GI50 [13]: > 100 µM
GI50 [14]: > 100 µM (inactive)
GI50 [55]: > 100 µM (inactive)
GI50 [16]: > 100 µM (inactive)
GI50 [17]: > 100 µM (inactive)
GI50 [18]: > 100 µM (inactive)
GI50 [19]: > 100 µM (inactive)
GI50 [20]: > 100 µM (inactive)
GI50 [21]: > 100 µM (inactive)
GI50 [56]: > 100 µM (inactive)
GI50 [22]: > 100 µM (inactive)
GI50 [23]: > 100 µM (inactive)
GI50 [24]: > 100 µM (inactive)
GI50 [25]: > 100 µM (inactive)
GI50 [27]: > 100 µM (inactive)
GI50 [28]: > 100 µM (inactive)
GI50 [29]: > 100 µM (inactive)
GI50 [30]: 10.7 µM (inactive)
GI50 [31]: > 100 µM (inactive)
GI50 [32]: > 100 µM (inactive)
GI50 [34]: > 100 µM (inactive)
GI50 [35]: > 100 µM (inactive)
GI50 [36]: > 100 µM (inactive)
GI50 [37]: > 100 µM (inactive)
GI50 [38]: > 100 µM (inactive)
GI50 [40]: > 100 µM (inactive)
GI50 [41]: > 100 µM (inactive)
GI50 [43]: > 100 µM (inactive)
GI50 [44]: > 100 µM (inactive)
GI50 [45]: > 100 µM (inactive)
GI50 [46]: > 100 µM (inactive)
GI50 [57]: > 100 µM (inactive)
GI50 [47]: > 100 µM (inactive)
GI50 [48]: > 100 µM (inactive)
GI50 [49]: > 100 µM (inactive)
GI50 [50]: > 100 µM (inactive)
GI50 [51]: > 100 µM (inactive)
GI50 [52]: > 100 µM (inactive)
GI50 [53]: > 100 µM (inactive)
GI50 [54]: > 100 µM (inactive)

O=[N+]([O-])c1cc(C(F)(F)F)ccc1S(=O)(=O)N[C@@H]1CCCC[C@H]1NS(=O)(=O)c1ccc(C(F)(F)F)cc1[N+](=O)[O-]
GI50 [1]: 3.47 µM (inactive)
GI50 [2]: 5.43 µM (inactive)
GI50 [3]: 4.16 µM (inactive)
GI50 [4]: 2.7 µM (inactive)
GI50 [5]: 2.23 µM (inactive)
GI50 [6]: 2.65 µM (inactive)
GI50 [7]: 2.72 µM (inactive)
GI50 [8]: 2.78 µM (inactive)
GI50 [9]: 4.22 µM (inactive)
GI50 [10]: 6.5 µM (inactive)
GI50 [11]: 4.28 µM (inactive)
GI50 [12]: 3.43 µM (inactive)
GI50 [13]: 2.69 µM
GI50 [14]: 1.39 µM (inactive)
GI50 [55]: 7.1 µM (inactive)
GI50 [15]: 1.98 µM (inactive)
GI50 [16]: 3.37 µM (inactive)
GI50 [17]: 2.48 µM (inactive)
GI50 [18]: 2.31 µM (inactive)
GI50 [20]: 3.08 µM (inactive)
GI50 [58]: 1.56 µM (inactive)
GI50 [21]: 2.75 µM (inactive)
GI50 [56]: 1.72 µM (inactive)
GI50 [22]: 2.77 µM (inactive)
GI50 [23]: 2.15 µM (inactive)
GI50 [24]: 3.63 µM (inactive)
GI50 [26]: 2.49 µM (inactive)
GI50 [27]: 7.52 µM (inactive)
GI50 [28]: 2.28 µM (inactive)
GI50 [29]: 3.57 µM (inactive)
GI50 [30]: 2.45 µM (inactive)
GI50 [31]: 2.51 µM (inactive)
GI50 [59]: 2.38 µM (inactive)
GI50 [32]: 2.61 µM (inactive)
GI50 [33]: 56.2 µM (inactive)
GI50 [34]: 2.86 µM (inactive)
GI50 [35]: 3.11 µM (inactive)
GI50 [37]: 2.45 µM (inactive)
GI50 [38]: 2.49 µM (inactive)
GI50 [39]: 2.86 µM (inactive)
GI50 [40]: 1.81 µM (inactive)
GI50 [41]: 5.55 µM (inactive)
GI50 [42]: 2.82 µM (inactive)
GI50 [43]: 3.58 µM (inactive)
GI50 [44]: 13.6 µM (inactive)
GI50 [45]: 3.45 µM (inactive)
GI50 [46]: 5.68 µM (inactive)
GI50 [57]: 1.83 µM (inactive)
GI50 [48]: 3.78 µM (inactive)
GI50 [49]: 3.13 µM (inactive)
GI50 [50]: 11 µM (inactive)
GI50 [51]: 3.37 µM (inactive)
GI50 [52]: 8.07 µM (inactive)
GI50 [53]: 3.81 µM (inactive)
GI50 [54]: 3.56 µM (inactive)
